Reference: US8299296B2, “Spiro compounds and pharmaceutical use thereof” (Japan Tobacco Inc., priority 2007, dated 2012)
Where a name gives a salt, the structure may show the parent alone.

Target: T1, human GPR40 (Homo sapiens, UniProt O14842)
T1 construct: expressed in transfected cells
Experiment: Ca2+ mobilization (FLIPR) in a stable GPR40-expressing cell; GPR40 agonist activity
Format: cell-based
Settings: compound concentration corresponding to 50% PosiC, 100% = intracellular calcium level induced by 80 μM palmitic acid
Protocol: Evaluation of effect of test compounds on Ca^2+ mobilization by using a stable GPR40-expressing cell A stable human GPR40-expressing HEK293 cell was used. A cell suspension was prepared such that the above-mentioned cells were present at 6×10^5 cells/mL in a cell culture medium (D-MEM (Nikken Bio Medical Laboratory) supplemented with 10% (v/v) fetal bovine serum (Biowest) and 1% (v/v) penicillin-streptomycin solution (Invitrogen)). The cell suspension was plated in a 384-well plate (poly-D-lysine coated plate; Falcon) in a volume of 25 μl/well, and the plate was incubated at 37° C. in an atmosphere of 5% CO2 overnight. Each test compound was added to the cell at each concentration as below, and then the change in intracellular calcium level was measured by FLIPR^TETRA (Molecular Devices). Before the FLIPR assay, the following preparative solutions were prepared. First, an assay buffer was prepared for use in the preparation of a fluorescent dye solution and a diluent buffer solution. The assay buffer was prepared by adding 1M HEPES solution (Invitrogen) to Hanks' Balanced Salt Solution (Invitrogen), followed by adjusting the pH to 7.4 with 1M NaOH (Nacalai Tesque). Next, the fluorescent dye solution and the diluent buffer solution were prepared. The fluorescent dye solution was prepared in accordance with the instruction manual attached to Fluo-4NW calcium assay kit (Invitrogen), followed by addition of bovine serum albumin (Sigma) to a final concentration of 0.1% (w/v). The diluent buffer solution was prepared by adding bovine serum albumin (Sigma) to the assay buffer to give a final concentration of 0.1% (w/v). After removing a medium supernatant from the cell culture plate incubated overnight, the fluorescent dye solution was added to the plate in a volume of 25 μl/well. The plate was incubated at 37° C. in an atmosphere of 5% CO2 for 90 minutes to promote the fluorescent dye uptake in the cell. Meanwhile, the test compounds (i.e., the compounds prepared in Examples) dissolved in dimethyl sulfoxide (DMSO; Nacalai Tesque) were diluted with the diluent buffer solution, to prepare each compound solution at each concentration. In addition, a palmitic acid solution was prepared as a positive control solution (hereinafter abbreviated as PosiC). A 40 μl aliquot of each sample solution prepared as above was added to each well of a 384-well polypropylene plate to prepare a compound plate. Finally, after the sufficient uptake of the fluorescent dye in the cell, the cell plate and the compound plate were set to FLIPR^TETRA. After the above pretreatment, the change in intracellular calcium level was measured by FLIPR^TETRA upon addition of 25 μl of each test compound solution at each concentration. The GPR40 agonist activity of each test compound at each concentration was determined as a relative activity level (% PosiC) with the intracellular calcium level induced by 80 μM palmitic acid (a GPR40 agonist) set to 100%. Next, each compound concentration corresponding to 50% PosiC was calculated based on the % PosiC value, to compare between agonist activities of the test compounds. In the tables, “++++” indicates 0.01 μM or more but less than 0.1 μM, “+++” indicates 0.1 μM or more but less than 1 μM, “++” indicates 1 μM or more but less than 10 μM, and “+” indicates 10 μM or more for 50% posiC value. In the tables, “N.T.” indicates “not tested”.

T1 sequence (O14842 whole entry): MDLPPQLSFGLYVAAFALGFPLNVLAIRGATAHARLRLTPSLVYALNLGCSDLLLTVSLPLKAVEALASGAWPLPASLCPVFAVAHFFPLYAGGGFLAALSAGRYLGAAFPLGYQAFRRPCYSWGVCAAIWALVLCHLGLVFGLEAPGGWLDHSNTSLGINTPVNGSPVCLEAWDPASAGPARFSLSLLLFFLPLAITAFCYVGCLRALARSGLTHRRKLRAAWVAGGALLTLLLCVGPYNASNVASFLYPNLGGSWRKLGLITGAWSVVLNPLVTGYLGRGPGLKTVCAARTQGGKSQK

Structure (SMILES)	EC50
CC#CC(CC(=O)O)c1ccc(COC2CCCC3(CCCCC3)C2)cc1 (racemic) [Example 82, 3-[4-(spiro[5.5]undec-2-yloxymethyl)-phenyl]-hex-4-ynoic acid]	1000 to 10000 nM
CCC#CC(CC(=O)O)c1ccc(OCC2CCCC3(CCCCC3)C2)cc1 (racemic) [Example 84, 3-[4-(spiro[5.5]undec-2-ylmethoxy)-phenyl]-hept-4-ynoic acid]	1000 to 10000 nM
C#CC(CC(=O)O)c1ccc(OCC2CCCC3(CCCCC3)C2)cc1 (racemic) [Example 85, 3-[4-(spiro[5.5]undec-2-ylmethoxy)-phenyl]-pent-4-ynoic acid]	1000 to 10000 nM
C=CC(CC(=O)O)c1ccc(OCC2CCCC3(CCCCC3)C2)cc1 (racemic) [Example 86, 3-[4-(spiro[5.5]undec-2-ylmethoxy)-phenyl]-pent-4-enoic acid]	1000 to 10000 nM
CCC(CC(=O)O)c1ccc(OCC2CCCC3(CCCCC3)C2)cc1 (racemic) [Example 87, 3-[4-(spiro[5.5]undec-2-ylmethoxy)-phenyl]-pentanoic acid]	1000 to 10000 nM
O=C(O)CCc1ccc(OCC2CCCC3(CCCC3)C2)nc1 (racemic) [Example 113, 3-[6-(spiro[4.5]dec-7-ylmethoxy)-pyridin-3-yl]-propionic acid hydrochloride]	1000 to 10000 nM
COC1CCC2(CCC(COc3ccc(CCC(=O)O)cc3)CC2)CC1 (racemic) [Example 114, 3-[4-(9-methoxy-spiro[5.5]undec-3-ylmethoxy)-phenyl]-propionic acid]	≥ 10000 nM
CC1(C)CC(COc2ccc(CCC(=O)O)cc2)CC2(CCCC2)C1 (racemic) [Example 115, 3-[4-(9,9-dimethyl-spiro[4.5]dec-7-ylmethoxy)-phenyl]-propionic acid]	1000 to 10000 nM
CC#C[C@@H](CC(=O)O)c1ccc(OCC2CCCCC3(CC3)C2)cc1 (mixture of isomers) [Example 116, (3S)-3-[4-(spiro[2.6]non-5-ylmethoxy)-phenyl]-hex-4-ynoic acid]	1000 to 10000 nM
O=C(O)CCc1ccc(OCC2CCCC3(CCCCC3)C2)cc1 (single isomer, unassigned) [Example 88, 3-[4-(spiro[5.5]undec-2-ylmethoxy)-phenyl]-propionic acid (chiral: A)]	1000 to 10000 nM
O=C(O)CCc1ccc(OCC2CCCC3(CCCCC3)C2)cc1 (single isomer, unassigned) [Example 89, 3-[4-(spiro[5.5]undec-2-ylmethoxy)-phenyl]-propionic acid (chiral: B)]	1000 to 10000 nM
CCOC(CC(=O)O)c1ccc(OCC2=CC3(CCCCC3)CCC2)cc1 (single isomer, unassigned; (+)) [Example 44, (+)-3-ethoxy-3-[4-(spiro[5.5]undec-1-en-2-ylmethoxy)-phenyl]-propionic acid]	1000 to 10000 nM
CC#C[C@@H](CC(=O)O)c1ccc(OCC2=CCC3(CCCC3)CC2)cc1 [Example 25, (S)-3-[4-(spiro[4.5]dec-7-en-8-ylmethoxy)-phenyl]-hex-4-ynoic acid]	100 to 1000 nM
CC#C[C@@H](CC(=O)O)c1ccc(OCC2CCC3(CCCCC3)C2)cc1 (stereo partly drawn) [Example 27, (3S)-3-[4-(spiro[4.5]dec-2-ylmethoxy)-phenyl]-hex-4-ynoic acid sodium salt]	100 to 1000 nM
CC#C[C@@H](CC(=O)O)c1ccc(OCC2CCCC3(CCCCC3)C2)cc1 (stereo partly drawn) [Example 29, (3S)-3-[4-(spiro[5.5]undec-2-ylmethoxy)-phenyl]-hex-4-ynoic acid sodium salt]	100 to 1000 nM

Other lines, results leading:

EC50	Structure (SMILES)
100 to 1000 nM	CC(C)OC(CC(=O)O)c1ccc(OCC2CCCC3(CCCCC3)C2)cc1 (racemic) [Example 81, 3-isopropoxy-3-[4-(spiro[5.5]undec-2-ylmethoxy)-phenyl]-propionic acid]
100 to 1000 nM	CCCOC(CC(=O)O)c1ccc(OCC2CCCC3(CCCCC3)C2)cc1 (racemic) [Example 83, 3-propoxy-3-[4-(spiro[5.5]undec-2-ylmethoxy)-phenyl]-propionic acid]
100 to 1000 nM	CC#C[C@@H](CC(=O)O)c1ccc(OCC2CCC3(CCC3)C2)cc1 (mixture of isomers) [Example 118, (3S)-3-[4-(spiro[3.4]oct-6-ylmethoxy)-phenyl]-hex-4-ynoic acid]
100 to 1000 nM	CC#C[C@@H](CC(=O)O)c1ccc(OCC2CCCC3(CCCCC3)C2)cc1 (single isomer, unassigned) [Example 32]
100 to 1000 nM	CC#C[C@@H](CC(=O)O)c1ccc(OCC2CCCC3(CCCC3)C2)cc1 (single isomer, unassigned) [Example 37]
100 to 1000 nM	CC#C[C@@H](CC(=O)O)c1ccc(OCC2CCCC3(CCCC3)C2)cc1 (single isomer, unassigned) [Example 39]
10 to 100 nM	CCOC(CC(=O)O)c1ccc(OCC2=CC3(CCCCC3)CCC2)cc1 (single isomer, unassigned; (-)) [Example 42, (−)-3-ethoxy-3-[4-(spiro[5.5]undec-1-en-2-ylmethoxy)-phenyl]-propionic acid]
100 to 1000 nM	CCOC(CC(=O)O)c1ccc(OCC2=CC3(CCCCC3)CCC2)cc1 (single isomer, unassigned; (-)) [Example 120, (−)-3-ethoxy-3-[4-(spiro[5.5]undec-1-en-2-ylmethoxy)-phenyl]-propionic acid L-lysine salt]
10 to 100 nM	CC#C[C@@H](CC(=O)O)c1ccc(OCC2=CCCC3(CCCCC3)C2)cc1 [Example 1, (S)-3-[4-(spiro[5.5]undec-2-en-2-ylmethoxy)-phenyl]-hex-4-ynoic acid]
10 to 100 nM	CC#C[C@@H](CC(=O)O)c1ccc(OCC2=CCCC3(CCCCC3)C2)cc1 [Example 2, (S)-3-[4-(spiro[5.5]undec-2-en-2-ylmethoxy)-phenyl]-hex-4-ynoic acid sodium salt]
10 to 100 nM	CC#C[C@@H](CC(=O)O)c1ccc(OCC2=CCCC3(CCCCCC3)C2)cc1 [Example 4, (S)-3-[4-(spiro[5.6]dodec-2-en-2-ylmethoxy)-phenyl]-hex-4-ynoic acid sodium salt]
100 to 1000 nM	CC#C[C@@H](CC(=O)O)c1ccc(OCC2=CCCC3(CCCC3)C2)cc1 [Example 6, (S)-3-[4-(spiro[4.5]dec-7-en-7-ylmethoxy)-phenyl]-hex-4-ynoic acid sodium salt]
100 to 1000 nM	CC#C[C@@H](CC(=O)O)c1ccc(OCC2=CC3(CCCC3)CCC2)cc1 [Example 8, (S)-3-[4-(spiro[4.5]dec-6-en-7-ylmethoxy)-phenyl]-hex-4-ynoic acid sodium salt]
100 to 1000 nM	CC#C[C@@H](CC(=O)O)c1ccc(OCC2=CC3(CCCCC3)CCC2)cc1 [Example 9, (S)-3-[4-(spiro[5.5]undec-1-en-2-ylmethoxy)-phenyl]-hex-4-ynoic acid]
100 to 1000 nM	CC#C[C@@H](CC(=O)O)c1ccc(OCC2=CCC3(CCCC3)C2)cc1 [Example 11, (S)-3-[4-(spiro[4.4]non-2-en-2-ylmethoxy)-phenyl]-hex-4-ynoic acid]
100 to 1000 nM	CC#C[C@@H](CC(=O)O)c1ccc(OCC2=CCC3(CCCCC3)C2)cc1 [Example 14, (S)-3-[4-(spiro[4.5]dec-2-en-2-ylmethoxy)-phenyl]-hex-4-ynoic acid sodium salt]
100 to 1000 nM	CC#C[C@@H](CC(=O)O)c1ccc(OCC2=CC3(CCCCC3)CC2)cc1 [Example 16, (S)-3-[4-(spiro[4.5]dec-1-en-2-ylmethoxy)-phenyl]-hex-4-ynoic acid sodium salt]
100 to 1000 nM	CC#C[C@@H](CC(=O)O)c1ccc(OCC2=CC3(CCCC3)CC2)cc1 [Example 17, (S)-3-[4-(spiro[4.4]non-1-en-2-ylmethoxy)-phenyl]-hex-4-ynoic acid]
100 to 1000 nM	CC#C[C@@H](CC(=O)O)c1ccc(OCC2CCC3(CCCC3)CC2)cc1 [Example 22, (S)-3-[4-(spiro[4.5]dec-8-ylmethoxy)-phenyl]-hex-4-ynoic acid]
100 to 1000 nM	CC#C[C@@H](CC(=O)O)c1ccc(OCC2CCC3(CCCCC3)CC2)cc1 [Example 24, (S)-3-[4-(spiro[5.5]undec-3-ylmethoxy)-phenyl]-hex-4-ynoic acid]
